Tests used:
Format in all cases: ADME
[1] = (§1) The drug is tested on Dorea formicigenerans strain: DSM3992 for biotransformation under anaerobic condition. The drug concentrations were measured over 6 timepoints collected between 0 and 12 hours of incubation by liquid-chromatography-coupled mass spectrometry (LC–MS); parameters: dose 5 uM, timepoint 0, 1.5, 3, 6, 9, 12 hours; details: 5 µM
[2] = The drug is tested on Bacteroides caccae strain: DSM19024 for biotransformation under anaerobic condition. The drug concentrations were measured over 6 timepoints collected between 0 and 12 hours of incubation by liquid-chromatography-coupled mass spectrometry (LC–MS); parameters: dose 5 uM, timepoint 0, 1.5, 3, 6, 9, 12 hours; details: 5 µM
[3] = The drug is tested on Bacteroides xylanisolvens strain: HM 722 for biotransformation under anaerobic condition. The drug concentrations were measured over 6 timepoints collected between 0 and 12 hours of incubation by liquid-chromatography-coupled mass spectrometry (LC–MS); parameters: dose 5 uM, timepoint 0, 1.5, 3, 6, 9, 12 hours; details: 5 µM
[4] = The drug is tested on Eubacterium hallii strain: DSM3353 for biotransformation under anaerobic condition. The drug concentrations were measured over 6 timepoints collected between 0 and 12 hours of incubation by liquid-chromatography-coupled mass spectrometry (LC–MS); parameters: dose 5 uM, timepoint 0, 1.5, 3, 6, 9, 12 hours; details: anaerobutyricum hallii, 5 µM
[5] = as §1, with “the gut metagenome community of A-06 with ENA study accession number: PRJEB31790” for “Dorea formicigenerans strain: DSM3992”, “7” for “6”; parameters: dose 5 uM, timepoint 0, 0.75, 1.5, 3, 6, 9, 12 hours; details: 5 µM
[6] = (§2) The drug is tested on the gut metagenome community of P-04 with ENA study accession number: PRJEB31790 for biotransformation under microaerobic condition. The drug concentrations were measured over 7 timepoints collected between 0 and 12 hours of incubation by liquid-chromatography-coupled mass spectrometry (LC–MS); parameters: dose 5 uM, timepoint 0, 0.75, 1.5, 3, 6, 9, 12 hours; details: 5 µM
[7] = The drug is tested on Lactobacillus ruminis strain: ATCC25644 for biotransformation under microaerobic condition. The drug concentrations were measured over 6 timepoints collected between 0 and 12 hours of incubation by liquid-chromatography-coupled mass spectrometry (LC–MS); parameters: dose 5 uM, timepoint 0, 1.5, 3, 6, 9, 12 hours; details: ligilactobacillus ruminis, 5 µM
[8] = The drug is tested on Streptococcus anginosus strain: DSM20563 for biotransformation under anaerobic condition. The drug concentrations were measured over 6 timepoints collected between 0 and 12 hours of incubation by liquid-chromatography-coupled mass spectrometry (LC–MS); parameters: dose 5 uM, timepoint 0, 1.5, 3, 6, 9, 12 hours; details: 5 µM
[9] = The drug is tested on Eubacterium eligens strain: DSM3376 for biotransformation under anaerobic condition. The drug concentrations were measured over 6 timepoints collected between 0 and 12 hours of incubation by liquid-chromatography-coupled mass spectrometry (LC–MS); parameters: dose 5 uM, timepoint 0, 1.5, 3, 6, 9, 12 hours; details: lachnospira eligens, 5 µM
[10] = The drug is tested on Clostridium scindens strain: DSM5676 for biotransformation under anaerobic condition. The drug concentrations were measured over 6 timepoints collected between 0 and 12 hours of incubation by liquid-chromatography-coupled mass spectrometry (LC–MS); parameters: dose 5 uM, timepoint 0, 1.5, 3, 6, 9, 12 hours; details: 5 µM
[11] = The drug is tested on Akkermansia muciniphila strain: DSM22959 for biotransformation under anaerobic condition. The drug concentrations were measured over 6 timepoints collected between 0 and 12 hours of incubation by liquid-chromatography-coupled mass spectrometry (LC–MS); parameters: dose 5 uM, timepoint 0, 1.5, 3, 6, 9, 12 hours; details: 5 µM
[12] = The drug is tested on Bacteroides fragilis strain: DSM2151 for biotransformation under anaerobic condition. The drug concentrations were measured over 6 timepoints collected between 0 and 12 hours of incubation by liquid-chromatography-coupled mass spectrometry (LC–MS); parameters: dose 5 uM, timepoint 0, 1.5, 3, 6, 9, 12 hours; details: 5 µM
[13] = The drug is tested on Parabacteroides merdae strain: DSM19495 for biotransformation under anaerobic condition. The drug concentrations were measured over 6 timepoints collected between 0 and 12 hours of incubation by liquid-chromatography-coupled mass spectrometry (LC–MS); parameters: dose 5 uM, timepoint 0, 1.5, 3, 6, 9, 12 hours; details: 5 µM
[14] = The drug is tested on Gemella haemolysans strain: DSM107751 for biotransformation under anaerobic condition. The drug concentrations were measured over 6 timepoints collected between 0 and 12 hours of incubation by liquid-chromatography-coupled mass spectrometry (LC–MS); parameters: dose 5 uM, timepoint 0, 1.5, 3, 6, 9, 12 hours; details: 5 µM
[15] = as §2, with “P-01” for “P-04”; parameters: dose 5 uM, timepoint 0, 0.75, 1.5, 3, 6, 9, 12 hours; details: 5 µM
[16] = The drug is tested on Gemella haemolysans strain: DSM107751 for biotransformation under microaerobic condition. The drug concentrations were measured over 6 timepoints collected between 0 and 12 hours of incubation by liquid-chromatography-coupled mass spectrometry (LC–MS); parameters: dose 5 uM, timepoint 0, 1.5, 3, 6, 9, 12 hours; details: 5 µM
[17] = as §2, with “A-10” for “P-04”, “anaerobic” for “microaerobic”; parameters: dose 5 uM, timepoint 0, 0.75, 1.5, 3, 6, 9, 12 hours; details: 5 µM
[18] = The drug is tested on Lactobacillus gasseri strain: DSM20243 for biotransformation under microaerobic condition. The drug concentrations were measured over 6 timepoints collected between 0 and 12 hours of incubation by liquid-chromatography-coupled mass spectrometry (LC–MS); parameters: dose 5 uM, timepoint 0, 1.5, 3, 6, 9, 12 hours; details: 5 µM
[19] = The drug is tested on Streptococcus sanguinis strain: DSM20567 for biotransformation under microaerobic condition. The drug concentrations were measured over 6 timepoints collected between 0 and 12 hours of incubation by liquid-chromatography-coupled mass spectrometry (LC–MS); parameters: dose 5 uM, timepoint 0, 1.5, 3, 6, 9, 12 hours; details: 5 µM
[20] = The drug is tested on Lactobacillus fermentum strain: DSM20052 for biotransformation under microaerobic condition. The drug concentrations were measured over 6 timepoints collected between 0 and 12 hours of incubation by liquid-chromatography-coupled mass spectrometry (LC–MS); parameters: dose 5 uM, timepoint 0, 1.5, 3, 6, 9, 12 hours; details: limosilactobacillus fermentum, 5 µM
[21] = The drug is tested on Lactobacillus ruminis strain: ATCC25644 for biotransformation under anaerobic condition. The drug concentrations were measured over 6 timepoints collected between 0 and 12 hours of incubation by liquid-chromatography-coupled mass spectrometry (LC–MS); parameters: dose 5 uM, timepoint 0, 1.5, 3, 6, 9, 12 hours; details: ligilactobacillus ruminis, 5 µM
[22] = The drug is tested on Streptococcus salivarius strain: DSM20560 for biotransformation under microaerobic condition. The drug concentrations were measured over 6 timepoints collected between 0 and 12 hours of incubation by liquid-chromatography-coupled mass spectrometry (LC–MS); parameters: dose 5 uM, timepoint 0, 1.5, 3, 6, 9, 12 hours; details: 5 µM
[23] = The drug is tested on Alloscardovia omnicolens strain: DSM21503 for biotransformation under anaerobic condition. The drug concentrations were measured over 6 timepoints collected between 0 and 12 hours of incubation by liquid-chromatography-coupled mass spectrometry (LC–MS); parameters: dose 5 uM, timepoint 0, 1.5, 3, 6, 9, 12 hours; details: 5 µM
[24] = The drug is tested on Enterococcus faecalis strain: ATCC29212 for biotransformation under anaerobic condition. The drug concentrations were measured over 6 timepoints collected between 0 and 12 hours of incubation by liquid-chromatography-coupled mass spectrometry (LC–MS); parameters: dose 5 uM, timepoint 0, 1.5, 3, 6, 9, 12 hours; details: 5 µM
[25] = The drug is tested on Clostridium ramosum strain: DSM1402 for biotransformation under anaerobic condition. The drug concentrations were measured over 6 timepoints collected between 0 and 12 hours of incubation by liquid-chromatography-coupled mass spectrometry (LC–MS); parameters: dose 5 uM, timepoint 0, 1.5, 3, 6, 9, 12 hours; details: thomasclavelia ramosa, 5 µM
[26] = The drug is tested on Blautia hansenii strain: DSM20583 for biotransformation under anaerobic condition. The drug concentrations were measured over 6 timepoints collected between 0 and 12 hours of incubation by liquid-chromatography-coupled mass spectrometry (LC–MS); parameters: dose 5 uM, timepoint 0, 1.5, 3, 6, 9, 12 hours; details: 5 µM
[27] = as §2, with “A-09” for “P-04”; parameters: dose 5 uM, timepoint 0, 0.75, 1.5, 3, 6, 9, 12 hours; details: 5 µM
[28] = The drug is tested on Lactobacillus fermentum strain: DSM20052 for biotransformation under anaerobic condition. The drug concentrations were measured over 6 timepoints collected between 0 and 12 hours of incubation by liquid-chromatography-coupled mass spectrometry (LC–MS); parameters: dose 5 uM, timepoint 0, 1.5, 3, 6, 9, 12 hours; details: limosilactobacillus fermentum, 5 µM
[29] = as §2, with “A-09” for “P-04”, “anaerobic” for “microaerobic”; parameters: dose 5 uM, timepoint 0, 0.75, 1.5, 3, 6, 9, 12 hours; details: 5 µM

| SMILES | Bacterial Biotransformation [1] | Bacterial Biotransformation [2] | Bacterial Biotransformation [3] | Bacterial Biotransformation [4] | Bacterial Biotransformation [5] | Bacterial Biotransformation [6] | Bacterial Biotransformation [7] | Bacterial Biotransformation [8] | Bacterial Biotransformation [9] | Bacterial Biotransformation [10] | Bacterial Biotransformation [11] | Bacterial Biotransformation [12] | Bacterial Biotransformation [13] | Bacterial Biotransformation [14] | Bacterial Biotransformation [15] | Bacterial Biotransformation [16] | Bacterial Biotransformation [17] | Bacterial Biotransformation [18] | Bacterial Biotransformation [19] | Bacterial Biotransformation [20] | further results |
| --- | --- | --- | --- | --- | --- | --- | --- | --- | --- | --- | --- | --- | --- | --- | --- | --- | --- | --- | --- | --- | --- |
| COc1c(C)c2c(c(O)c1C/C=C(\C)CCC(=O)OCCN1CCOCC1)C(=O)OC2 [MYCOPHENOLATE MOFETIL] | Compound NOT metabolized | Compound metabolized | Compound metabolized | Compound NOT metabolized | Compound metabolized | Compound metabolized | Compound metabolized | Compound metabolized | Compound metabolized | Compound NOT metabolized | Compound NOT metabolized | Compound NOT metabolized | Compound metabolized | Compound metabolized | Compound metabolized | Compound metabolized | Compound metabolized | Compound NOT metabolized | Compound metabolized | Compound metabolized | Bacterial Biotransformation [21]: Compound metabolized; Bacterial Biotransformation [22]: Compound metabolized; Bacterial Biotransformation [23]: Compound metabolized; Bacterial Biotransformation [24]: Compound metabolized; Bacterial Biotransformation [25]: Compound NOT metabolized; Bacterial Biotransformation [26]: Compound NOT metabolized; Bacterial Biotransformation [27]: Compound metabolized; Bacterial Biotransformation [28]: Compound NOT metabolized; Bacterial Biotransformation [29]: Compound metabolized |
| CC(C)NCC(O)COc1ccc(CC(N)=O)cc1 (configuration not stated) [ATENOLOL] | Compound NOT metabolized | Compound NOT metabolized | Compound NOT metabolized | Compound NOT metabolized | Compound NOT metabolized | Compound NOT metabolized | Compound NOT metabolized | Compound NOT metabolized | Compound NOT metabolized | Compound NOT metabolized | Compound NOT metabolized | Compound NOT metabolized | Compound NOT metabolized | Compound NOT metabolized | Compound NOT metabolized | Compound NOT metabolized | Compound NOT metabolized | Compound NOT metabolized | Compound NOT metabolized | Compound NOT metabolized | Bacterial Biotransformation [21]: Compound NOT metabolized; Bacterial Biotransformation [22]: Compound NOT metabolized; Bacterial Biotransformation [23]: Compound NOT metabolized; Bacterial Biotransformation [24]: Compound NOT metabolized; Bacterial Biotransformation [25]: Compound NOT metabolized; Bacterial Biotransformation [26]: Compound NOT metabolized; Bacterial Biotransformation [27]: Compound NOT metabolized; Bacterial Biotransformation [28]: Compound NOT metabolized; Bacterial Biotransformation [29]: Compound NOT metabolized |
| C[C@H]1C[C@@H]2[C@H]([C@@H](O)C[C@@]3(C)[C@H]2CC[C@]3(O)C(=O)CO)[C@@]2(C)C=CC(=O)C=C12 [METHYLPREDNISOLONE] | Compound NOT metabolized | Compound NOT metabolized | Compound NOT metabolized | Compound NOT metabolized | Compound metabolized | Compound metabolized | Compound NOT metabolized | Compound NOT metabolized | Compound NOT metabolized | Compound metabolized | Compound NOT metabolized | Compound NOT metabolized | Compound NOT metabolized | Compound NOT metabolized | Compound metabolized | Compound NOT metabolized | Compound metabolized | Compound NOT metabolized | Compound NOT metabolized | Compound NOT metabolized | Bacterial Biotransformation [21]: Compound NOT metabolized; Bacterial Biotransformation [22]: Compound NOT metabolized; Bacterial Biotransformation [23]: Compound NOT metabolized; Bacterial Biotransformation [24]: Compound NOT metabolized; Bacterial Biotransformation [25]: Compound NOT metabolized; Bacterial Biotransformation [26]: Compound NOT metabolized; Bacterial Biotransformation [27]: Compound metabolized; Bacterial Biotransformation [28]: Compound NOT metabolized; Bacterial Biotransformation [29]: Compound metabolized |
